Measurements taken from patent publication US20080262082A1, “COMPOSITION CONTAINING S-(-)-TULIPALIN B OR ACETYLATED-S-(-)-TULIPALIN B” (BIO SPECTRUM, INC., priority 2007, published 2008).
Where two headings read alike, the source gives them in different places.

Columns and labels:
Format in all cases: cell-based
[1] = tested on: Bordetella bronchiseptica KCCM 21998; assay: MIC by broth dilution method; details: B. bronchiseptica, 37° C., 24 hours
[2] = tested on: Neisseria meningitidis KCCM 41562; assay: MIC by broth dilution method; details: N. meningitidis, 37° C., 24 hours
[3] = tested on: Propionibacterium granulosum ATCC 25564; assay: Agar diffusion antibacterial test (anaerobic); details: P. granulosum
[4] = tested on: Actiinobacillus ureae KCTC 2674; assay: Agar diffusion antibacterial test (aerobic); details: A. ureae
[5] = tested on: Helicobacter pylori KCTC 5335; assay: MIC by broth dilution method; details: H. pylori, 37° C., 24 hours
[6] = tested on: Salmonella typhimurium KCTC 2514; assay: Agar diffusion antibacterial test (aerobic); details: S. typhimurium
[7] = tested on: 8 anaerobic bacterial species; assay: Agar diffusion antibacterial test, overall (anaerobic); details: 8 anaerobic bacterial spp, agar diffusion
[8] = tested on: Propionibacterium acne ATCC 6919; assay: Agar diffusion antibacterial test (anaerobic); details: P. acne
[9] = tested on: Pseudomonas aeruginosa KCTC 1637; assay: MIC by broth dilution method; details: P. aeruginosa, 37° C., 24 hours
[10] = tested on: Shigella sonnei KCTC 2518; assay: Agar diffusion antibacterial test (aerobic); details: S. sonnei
[11] = tested on: Escherichia coli KCTC 1039; assay: Agar diffusion antibacterial test (aerobic); details: E. coli
[12] = tested on: Aeromonas salmonicida KCTC 12266; assay: MIC by broth dilution method; details: A. salmonicida, 37° C., 24 hours
[13] = tested on: Legionella pneumophila KCCM 41779; details: L. pneumophila
[14] = tested on: Clostridium dificile KCCM 12115; assay: Agar diffusion antibacterial test (anaerobic); details: C. difficile
[15] = tested on: Legionella pneumophila KCCM 41779; details: L. pneumophila; broth dilution, 37° C., 24 hours
[16] = tested on: Listeria monocytogenes KCTC 3569; assay: MIC by broth dilution method; details: L. monocytogenes, 37° C., 24 hours
[17] = tested on: Moraxella catarrhalis KCCM 40056; assay: MIC by broth dilution method; details: M. catarrhalis, 37° C., 24 hours
[18] = tested on: Vibrio parahaemolyticus KCTC 27; assay: Agar diffusion antibacterial test (aerobic); details: V. parahaemolyticus
[19] = tested on: Salmonella enteritidis KCTC 12400; assay: Agar diffusion antibacterial test (aerobic); details: S. enteritidis
[20] = tested on: Yersinia enterocolitica KCCM 41657; assay: MIC by broth dilution method; details: Y. enterocolitica, 37° C., 24 hours
[21] = tested on: Bacillus subtilis KCTC 1021; assay: MIC by broth dilution method; details: B. subtilis, 37° C., 24 hours
[22] = tested on: Shigella flexneri KCTC 2517; assay: Agar diffusion antibacterial test (aerobic); details: S. flexneri
[23] = tested on: Clostridium perfringens KCCM 12098; details: C. perfringens
[24] = tested on: Shigella flexneri KCTC 2517; assay: MIC by broth dilution method; details: S. flexneri, 37° C., 24 hours
[25] = tested on: Clostridium dificile KCCM 12115; assay: MIC by broth dilution method; details: C. difficile, 37° C., 24 hours
[26] = tested on: Streptococcus mutans KCTC 3065; assay: MIC by broth dilution method; details: S. mutans, 37° C., 24 hours
[27] = tested on: Moraxella catarrhalis KCCM 40056; assay: Agar diffusion antibacterial test (aerobic); details: M. catarrhalis
[28] = tested on: Bacillus subtilis KCTC 1021; assay: Agar diffusion antibacterial test (aerobic); details: B. subtilis
[29] = tested on: Shigella sonnei KCTC 2518; assay: MIC by broth dilution method; details: S. sonnei, 37° C., 24 hours

C=C1C(=O)OC[C@H]1O [S-(−)-tulipalin B, (4S)-4-hydroxy-3-methylene-oxolan-2-one]
MIC [1]: 0.03% | MIC [2]: 0.01% | Inhibitory zone diameter ([3]; treatment concentration 0.03%): 10.5 mm | Inhibitory zone diameter ([3]; treatment concentration 0.1%): 13 mm | Inhibitory zone diameter ([3]; treatment concentration 0.3%): 15 mm | Inhibitory zone diameter ([3]; treatment concentration 1.0%): 16 mm | Inhibitory zone diameter ([4]; treatment concentration 0.03%): 11 mm | Inhibitory zone diameter ([4]; treatment concentration 0.1%): 12 mm | Inhibitory zone diameter ([4]; treatment concentration 0.3%): 17 mm | Inhibitory zone diameter ([4]; treatment concentration 1.0%): 19 mm | MIC [5]: 0.01% | Inhibitory zone diameter ([6]; treatment concentration 0.03%): 11 mm | Inhibitory zone diameter ([6]; treatment concentration 0.1%): 13 mm | Inhibitory zone diameter ([6]; treatment concentration 0.3%): 17 mm | Inhibitory zone diameter ([6]; treatment concentration 1.0%): 20 mm | Antibacterial effects [7]: relatively high antibacterial effects | Inhibitory zone diameter ([8]; treatment concentration 0.03%): 11 mm | Inhibitory zone diameter ([8]; treatment concentration 0.1%): 13 mm | Inhibitory zone diameter ([8]; treatment concentration 0.3%): 14 mm | Inhibitory zone diameter ([8]; treatment concentration 1.0%): 16 mm | MIC [9]: 0.11% | Inhibitory zone diameter ([10]; treatment concentration 0.03%): 11 mm | Inhibitory zone diameter ([10]; treatment concentration 0.1%): 12 mm | Inhibitory zone diameter ([10]; treatment concentration 0.3%): 17 mm | Inhibitory zone diameter ([10]; treatment concentration 1.0%): 19 mm | Inhibitory zone diameter ([11]; treatment concentration 0.01%): 10.5 mm | Inhibitory zone diameter ([11]; treatment concentration 0.03%): 11.5 mm | Inhibitory zone diameter ([11]; treatment concentration 0.1%): 13 mm | Inhibitory zone diameter ([11]; treatment concentration 0.3%): 16 mm | Inhibitory zone diameter ([11]; treatment concentration 1.0%): 20 mm | MIC [12]: 0.01% | Inhibitory zone diameter ([13]; treatment concentration 0.03%): 11 mm | Inhibitory zone diameter ([13]; treatment concentration 0.1%): 12 mm | Inhibitory zone diameter ([13]; treatment concentration 0.3%): 16 mm | Inhibitory zone diameter ([13]; treatment concentration 1.0%): 18 mm | Inhibitory zone diameter ([14]; treatment concentration 0.1%): 10.5 mm | Inhibitory zone diameter ([14]; treatment concentration 0.3%): 13 mm | Inhibitory zone diameter ([14]; treatment concentration 1.0%): 13 mm | MIC [15]: 0.03% | MIC [16]: 0.10% | MIC [17]: 0.03% | Inhibitory zone diameter ([18]; treatment concentration 0.01%): 11 mm | Inhibitory zone diameter ([18]; treatment concentration 0.03%): 13 mm | Inhibitory zone diameter ([18]; treatment concentration 0.1%): 14 mm | Inhibitory zone diameter ([18]; treatment concentration 0.3%): 18 mm | Inhibitory zone diameter ([18]; treatment concentration 1.0%): 19 mm | Inhibitory zone diameter ([19]; treatment concentration 0.03%): 11 mm | Inhibitory zone diameter ([19]; treatment concentration 0.1%): 13 mm | Inhibitory zone diameter ([19]; treatment concentration 0.3%): 16.5 mm | Inhibitory zone diameter ([19]; treatment concentration 1.0%): 20 mm | MIC [20]: 0.015% | MIC [21]: 0.04% | Inhibitory zone diameter ([22]; treatment concentration 0.03%): 10.5 mm | Inhibitory zone diameter ([22]; treatment concentration 0.1%): 13 mm | Inhibitory zone diameter ([22]; treatment concentration 0.3%): 18 mm | Inhibitory zone diameter ([22]; treatment concentration 1.0%): 19 mm | Inhibitory zone diameter ([23]; treatment concentration 0.1%): 11 mm | Inhibitory zone diameter ([23]; treatment concentration 0.3%): 13 mm | Inhibitory zone diameter ([23]; treatment concentration 1.0%): 14 mm | MIC [24]: 0.025% | MIC [25]: 0.10% | MIC [26]: 0.10% | Inhibitory zone diameter ([27]; treatment concentration 0.03%): 11 mm | Inhibitory zone diameter ([27]; treatment concentration 0.1%): 11 mm | Inhibitory zone diameter ([27]; treatment concentration 0.3%): 15 mm | Inhibitory zone diameter ([27]; treatment concentration 1.0%): 18 mm | Inhibitory zone diameter ([28]; treatment concentration 0.03%): 11 mm | Inhibitory zone diameter ([28]; treatment concentration 0.1%): 13 mm | Inhibitory zone diameter ([28]; treatment concentration 0.3%): 15 mm | Inhibitory zone diameter ([28]; treatment concentration 1.0%): 17 mm | MIC [29]: 0.03%
